Columns and labels:
GALAP (Galium) = assay: Postemergence herbicidal evaluation; format: in vivo, Galium aparine
Summary of the method: (§1)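 Herbicidal effect was judged by eye on a 0–9 scale covering stand, vigor, deformity, size and chlorosis, compared with controls, four to five weeks after seedlings about two weeks old were sprayed (40 psi, ~0.0156–0.500 kg/ha).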

[1] = test system: IPOHE (Morningglory, Ivyleaf); assay: Postemergence herbicidal evaluation; format: in vivo, Ipomoea hederacea
Summary of the method: as §1

SETVI (Foxtail, Green) [2] = assay: Postemergence herbicidal evaluation; format: in vivo, Setaria viridis
Summary of the method: as §1

[3] = test system: TRZAWR (Wheat, Winter, cv Riband); assay: Postemergence herbicidal evaluation; format: in vivo, Triticum aestivum
Summary of the method: as §1

ABUTH (Velvetleaf) = assay: Preemergence herbicidal evaluation; format: in vivo, Abutilon theophrasti; details: rated 4-5 weeks after treatment
Summary of the method: (§2)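 In this greenhouse assay, monocot and dicot seeds are planted in soil and treated prior to emergence with an aqueous acetone spray (about 0.0156-0.500 kg/ha). Plants are assessed visually against control on a 0-9 scale after 4-5 weeks.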

[4] = test system: IPOHE (Morningglory, Ivyleaf); assay: Preemergence herbicidal evaluation; format: in vivo, Ipomoea hederacea; details: rated 4-5 weeks after treatment
Summary of the method: as §2

ECHCG (Barnyardgrass) = assay: Preemergence herbicidal evaluation; format: in vivo, Echinochloa crus-galli; details: rated 4-5 weeks after treatment
Summary of the method: as §2

SETVI (Foxtail, Green) [5] = assay: Preemergence herbicidal evaluation; format: in vivo, Setaria viridis; details: rated 4-5 weeks after treatment
Summary of the method: as §2

ZEAMX (Corn, Field) = assay: Preemergence herbicidal evaluation; format: in vivo, Zea mays; details: rated 4-5 weeks after treatment
Summary of the method: as §2

[6] = test system: ECHORC (Watergrass (Calif.)); assay: Preemergence weed control under flooded paddy conditions; format: in vivo, Echinochloa oryzoides; details: rated 3-4 weeks after treatment
Summary of the method: (§3)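 Silt loam, seeds in top 0.5 cm; flood held 1.5-3 cm; test cpd as acetone/water 50/50 into flood water, ~0.0313-0.500 kg/ha a.i.; greenhouse 3-4 wk; visual 0-9 score vs control.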

CYPIR (Rice Flatsedge) = assay: as above; format: in vivo, Cyperus iria; details: rated 3-4 weeks after treatment
Summary of the method: as §3

MOOVA (Monochoria) = assay: as above; format: in vivo, Monochoria vaginalis; details: rated 3-4 weeks after treatment
Summary of the method: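 Visual injury scored 0-9 against control three to four weeks post-treatment, greenhouse-grown. Application: acetone/water (50/50) solutions dosed directly into flood water (1.5-3 cm over silt loam, planted top 0.5 cm), roughly 0.0313 to 0.500 kg/ha active ingredient.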

[7] = test system: ECHORC (Watergrass (Calif.)); assay: Postemergence weed control under flooded paddy conditions; format: in vivo, Echinochloa oryzoides; details: postemergence weeds
Summary of the method: (§4)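 Containers holding 3–5 cm weeds and rice at 1.5–2.5 leaves are flooded to 1.5–3 cm above soil. Compound in 50/50 v/v aqueous/acetone is then added directly to the water, about 0.0313–0.500 kg/ha. Plants are kept in the greenhouse and rated 0–9 visually at 3–4 weeks.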

[8] = test system: SAGPY (Arrowhead (Pygmaea)); assay: as above; format: in vivo, Sagittaria pygmaea; details: postemergence weeds
Summary of the method: as §4

[9] = Rate 0.0625 kg/ha, rated 3 to 4 weeks after treatment
[10] = rate 0.1250 kg/ha, 3-4 weeks after treatment
[11] = rate 0.2500 kg/ha, 3-4 weeks after treatment

C#CCOC(=O)CC1SC(=Nc2cc(-n3c(=O)cc(C(F)(F)F)n(C)c3=O)c(F)cc2Cl)N(CC(=O)OCC)C1=O (stereo not drawn) [Compound 59, 2-{{2-Chloro-5-[3,6-dihydro-3-methyl-2,6-dioxo-4-(trifluoromethyl)-1(2H)-pyrimidinyl]-4-fluorophenyl}imino}-4-oxo-3,5-thiazolidinediacetic acid, 3-ethyl (2-propynyl) ester]
Postemergence herbicidal rating GALAP (GALAP (Galium); Rate 0.0158 kg/ha): 6.0
Postemergence herbicidal rating GALAP (GALAP (Galium); Rate 0.0315 kg/ha): 6.0
Postemergence herbicidal rating GALAP (GALAP (Galium); Rate 0.0630 kg/ha): 9.0
Postemergence herbicidal rating IPOHE ([1]; Rate 0.0158 kg/ha): 9.0
Postemergence herbicidal rating IPOHE ([1]; Rate 0.0315 kg/ha): 9.0
Postemergence herbicidal rating IPOHE ([1]; Rate 0.0630 kg/ha): 9.0
Postemergence herbicidal rating SETVI (SETVI (Foxtail, Green) [2]; Rate 0.0158 kg/ha): 9.0
Postemergence herbicidal rating SETVI (SETVI (Foxtail, Green) [2]; Rate 0.0315 kg/ha): 9.0
Postemergence herbicidal rating SETVI (SETVI (Foxtail, Green) [2]; Rate 0.0630 kg/ha): 9.0
Postemergence herbicidal rating TRZAWR ([3]; Rate 0.0158 kg/ha): 8.0
Postemergence herbicidal rating TRZAWR ([3]; Rate 0.0315 kg/ha): 8.0
Postemergence herbicidal rating TRZAWR ([3]; Rate 0.0630 kg/ha): 9.0
Preemergence herbicidal rating ABUTH (ABUTH (Velvetleaf); rate 0.0156 kg/ha): 2.0
Preemergence herbicidal rating ABUTH (ABUTH (Velvetleaf); rate 0.0313 kg/ha): 6.0
Preemergence herbicidal rating ABUTH (ABUTH (Velvetleaf); rate 0.0625 kg/ha): 8.5
Preemergence herbicidal rating ABUTH (ABUTH (Velvetleaf); rate 0.1250 kg/ha): 9.0
Preemergence herbicidal rating ABUTH (ABUTH (Velvetleaf); rate 0.2500 kg/ha): 9.0
Preemergence herbicidal rating ABUTH (ABUTH (Velvetleaf); rate 0.5000 kg/ha): 9.0
Preemergence herbicidal rating IPOHE ([4]; rate 0.0156 kg/ha): 1.0
Preemergence herbicidal rating IPOHE ([4]; rate 0.0313 kg/ha): 4.0
Preemergence herbicidal rating IPOHE ([4]; rate 0.0625 kg/ha): 8.5
Preemergence herbicidal rating IPOHE ([4]; rate 0.1250 kg/ha): 9.0
Preemergence herbicidal rating IPOHE ([4]; rate 0.2500 kg/ha): 9.0
Preemergence herbicidal rating IPOHE ([4]; rate 0.5000 kg/ha): 9.0
Preemergence herbicidal rating ECHCG (ECHCG (Barnyardgrass); rate 0.0156 kg/ha): 0.0
Preemergence herbicidal rating ECHCG (ECHCG (Barnyardgrass); rate 0.0313 kg/ha): 0.0
Preemergence herbicidal rating ECHCG (ECHCG (Barnyardgrass); rate 0.0625 kg/ha): 0.5
Preemergence herbicidal rating ECHCG (ECHCG (Barnyardgrass); rate 0.1250 kg/ha): 2.0
Preemergence herbicidal rating ECHCG (ECHCG (Barnyardgrass); rate 0.2500 kg/ha): 6.0
Preemergence herbicidal rating ECHCG (ECHCG (Barnyardgrass); rate 0.5000 kg/ha): 9.0
Preemergence herbicidal rating SETVI (SETVI (Foxtail, Green) [5]; rate 0.0156 kg/ha): 0.0
Preemergence herbicidal rating SETVI (SETVI (Foxtail, Green) [5]; rate 0.0313 kg/ha): 0.0
Preemergence herbicidal rating SETVI (SETVI (Foxtail, Green) [5]; rate 0.0625 kg/ha): 1.5
Preemergence herbicidal rating SETVI (SETVI (Foxtail, Green) [5]; rate 0.1250 kg/ha): 8.0
Preemergence herbicidal rating SETVI (SETVI (Foxtail, Green) [5]; rate 0.2500 kg/ha): 9.0
Preemergence herbicidal rating SETVI (SETVI (Foxtail, Green) [5]; rate 0.5000 kg/ha): 9.0
Preemergence herbicidal rating ZEAMX (ZEAMX (Corn, Field); rate 0.0156 kg/ha): 1.0
Preemergence herbicidal rating ZEAMX (ZEAMX (Corn, Field); rate 0.0313 kg/ha): 0.5
Preemergence herbicidal rating ZEAMX (ZEAMX (Corn, Field); rate 0.0625 kg/ha): 1.5
Preemergence herbicidal rating ZEAMX (ZEAMX (Corn, Field); rate 0.1250 kg/ha): 3.0
Preemergence herbicidal rating ZEAMX (ZEAMX (Corn, Field); rate 0.2500 kg/ha): 3.5
Preemergence herbicidal rating ZEAMX (ZEAMX (Corn, Field); rate 0.5000 kg/ha): 6.0
ECHORC herbicidal effect rating ([6]; 0.0625 kg/ha): 4.0
ECHORC herbicidal effect rating ([6]; 0.1250 kg/ha): 5.0
ECHORC herbicidal effect rating ([6]; 0.2500 kg/ha): 7.0
CYPIR herbicidal effect rating (CYPIR (Rice Flatsedge); 0.0625 kg/ha): 0.0
CYPIR herbicidal effect rating (CYPIR (Rice Flatsedge); 0.1250 kg/ha): 0.0
CYPIR herbicidal effect rating (CYPIR (Rice Flatsedge); 0.2500 kg/ha): 9.0
MOOVA herbicidal effect rating (MOOVA (Monochoria); 0.0625 kg/ha): 0.0
MOOVA herbicidal effect rating (MOOVA (Monochoria); 0.1250 kg/ha): 0.0
MOOVA herbicidal effect rating (MOOVA (Monochoria); 0.2500 kg/ha): 9.0
Herbicidal rating ECHORC [7, 9]: 4.0
Herbicidal rating ECHORC [7, 10]: 5.0
Herbicidal rating ECHORC [7, 11]: 7.0
Herbicidal rating SAGPY [8, 9]: 0.0
Herbicidal rating SAGPY [8, 10]: 0.0
Herbicidal rating SAGPY [8, 11]: 3.0
